These results are taken from ChEMBL document CHEMBL5120797, “Principles of Kinase Allosteric Inhibition and Pocket Validation” (J Med Chem, 2022).

As a reminder, the Kd is a measure of binding affinity in units of concentration. As usually defined, the IC50 is the concentration at which inhibition is half-maximal. Higher therefore signals weaker potency.

Assay [1] can be described thus: Binding affinity to MEK1/2 (unknown origin) assessed as dissociation constant. Also on record: species or system Homo sapiens.
Assay [2] concerns the target Hepatocyte growth factor receptor (Homo sapiens, UniProt P08581). Put plainly: Inhibition of c-Met (unknown origin).
Assay [3] can be described thus: Inhibition of MEK1/2 (unknown origin). The arrangement: species or system Homo sapiens.
Assay [4] has as its target T1, Tyrosine-protein kinase ITK/TSK (Homo sapiens, UniProt Q08881).
T1 sequence (Q08881 whole entry): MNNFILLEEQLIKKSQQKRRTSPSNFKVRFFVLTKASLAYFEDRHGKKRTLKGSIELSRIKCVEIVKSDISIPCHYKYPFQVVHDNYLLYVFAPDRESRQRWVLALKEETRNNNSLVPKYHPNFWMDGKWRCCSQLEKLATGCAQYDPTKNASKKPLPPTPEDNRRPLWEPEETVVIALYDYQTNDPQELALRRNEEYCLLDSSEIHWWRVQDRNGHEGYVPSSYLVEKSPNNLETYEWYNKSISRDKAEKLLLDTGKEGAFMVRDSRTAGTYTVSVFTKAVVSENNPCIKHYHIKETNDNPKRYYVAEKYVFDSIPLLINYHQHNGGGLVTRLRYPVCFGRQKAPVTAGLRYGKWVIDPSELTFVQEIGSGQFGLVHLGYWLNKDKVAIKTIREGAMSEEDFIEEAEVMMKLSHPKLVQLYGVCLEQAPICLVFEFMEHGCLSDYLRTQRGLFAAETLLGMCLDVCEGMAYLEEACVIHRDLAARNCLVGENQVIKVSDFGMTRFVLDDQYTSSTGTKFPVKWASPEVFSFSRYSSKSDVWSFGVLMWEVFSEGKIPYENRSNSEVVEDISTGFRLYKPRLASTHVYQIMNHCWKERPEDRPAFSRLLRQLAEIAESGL
The assay is described as follows: Inhibition of human N-terminal His6 tagged ITK (354 to 620 residues) expressed in Sf9 insect cells incubated for 30 mins by time-resolved fluorescence assay.

In assay [5] the target is Serine/threonine-protein kinase WNK1 (Homo sapiens, UniProt Q9H4A3). The assay is described as follows: Inhibition of human WNK1 (198 to 401 residues) using biotinylated STK3 as substrate incubated for 2 hrs by HTRF assay. Background: TR-FRET usually uses a lanthanide donor and a delayed reading to cut background.
Serine/threonine-protein kinase WNK1, sequence (Q9H4A3 whole entry, the tested form may be a part): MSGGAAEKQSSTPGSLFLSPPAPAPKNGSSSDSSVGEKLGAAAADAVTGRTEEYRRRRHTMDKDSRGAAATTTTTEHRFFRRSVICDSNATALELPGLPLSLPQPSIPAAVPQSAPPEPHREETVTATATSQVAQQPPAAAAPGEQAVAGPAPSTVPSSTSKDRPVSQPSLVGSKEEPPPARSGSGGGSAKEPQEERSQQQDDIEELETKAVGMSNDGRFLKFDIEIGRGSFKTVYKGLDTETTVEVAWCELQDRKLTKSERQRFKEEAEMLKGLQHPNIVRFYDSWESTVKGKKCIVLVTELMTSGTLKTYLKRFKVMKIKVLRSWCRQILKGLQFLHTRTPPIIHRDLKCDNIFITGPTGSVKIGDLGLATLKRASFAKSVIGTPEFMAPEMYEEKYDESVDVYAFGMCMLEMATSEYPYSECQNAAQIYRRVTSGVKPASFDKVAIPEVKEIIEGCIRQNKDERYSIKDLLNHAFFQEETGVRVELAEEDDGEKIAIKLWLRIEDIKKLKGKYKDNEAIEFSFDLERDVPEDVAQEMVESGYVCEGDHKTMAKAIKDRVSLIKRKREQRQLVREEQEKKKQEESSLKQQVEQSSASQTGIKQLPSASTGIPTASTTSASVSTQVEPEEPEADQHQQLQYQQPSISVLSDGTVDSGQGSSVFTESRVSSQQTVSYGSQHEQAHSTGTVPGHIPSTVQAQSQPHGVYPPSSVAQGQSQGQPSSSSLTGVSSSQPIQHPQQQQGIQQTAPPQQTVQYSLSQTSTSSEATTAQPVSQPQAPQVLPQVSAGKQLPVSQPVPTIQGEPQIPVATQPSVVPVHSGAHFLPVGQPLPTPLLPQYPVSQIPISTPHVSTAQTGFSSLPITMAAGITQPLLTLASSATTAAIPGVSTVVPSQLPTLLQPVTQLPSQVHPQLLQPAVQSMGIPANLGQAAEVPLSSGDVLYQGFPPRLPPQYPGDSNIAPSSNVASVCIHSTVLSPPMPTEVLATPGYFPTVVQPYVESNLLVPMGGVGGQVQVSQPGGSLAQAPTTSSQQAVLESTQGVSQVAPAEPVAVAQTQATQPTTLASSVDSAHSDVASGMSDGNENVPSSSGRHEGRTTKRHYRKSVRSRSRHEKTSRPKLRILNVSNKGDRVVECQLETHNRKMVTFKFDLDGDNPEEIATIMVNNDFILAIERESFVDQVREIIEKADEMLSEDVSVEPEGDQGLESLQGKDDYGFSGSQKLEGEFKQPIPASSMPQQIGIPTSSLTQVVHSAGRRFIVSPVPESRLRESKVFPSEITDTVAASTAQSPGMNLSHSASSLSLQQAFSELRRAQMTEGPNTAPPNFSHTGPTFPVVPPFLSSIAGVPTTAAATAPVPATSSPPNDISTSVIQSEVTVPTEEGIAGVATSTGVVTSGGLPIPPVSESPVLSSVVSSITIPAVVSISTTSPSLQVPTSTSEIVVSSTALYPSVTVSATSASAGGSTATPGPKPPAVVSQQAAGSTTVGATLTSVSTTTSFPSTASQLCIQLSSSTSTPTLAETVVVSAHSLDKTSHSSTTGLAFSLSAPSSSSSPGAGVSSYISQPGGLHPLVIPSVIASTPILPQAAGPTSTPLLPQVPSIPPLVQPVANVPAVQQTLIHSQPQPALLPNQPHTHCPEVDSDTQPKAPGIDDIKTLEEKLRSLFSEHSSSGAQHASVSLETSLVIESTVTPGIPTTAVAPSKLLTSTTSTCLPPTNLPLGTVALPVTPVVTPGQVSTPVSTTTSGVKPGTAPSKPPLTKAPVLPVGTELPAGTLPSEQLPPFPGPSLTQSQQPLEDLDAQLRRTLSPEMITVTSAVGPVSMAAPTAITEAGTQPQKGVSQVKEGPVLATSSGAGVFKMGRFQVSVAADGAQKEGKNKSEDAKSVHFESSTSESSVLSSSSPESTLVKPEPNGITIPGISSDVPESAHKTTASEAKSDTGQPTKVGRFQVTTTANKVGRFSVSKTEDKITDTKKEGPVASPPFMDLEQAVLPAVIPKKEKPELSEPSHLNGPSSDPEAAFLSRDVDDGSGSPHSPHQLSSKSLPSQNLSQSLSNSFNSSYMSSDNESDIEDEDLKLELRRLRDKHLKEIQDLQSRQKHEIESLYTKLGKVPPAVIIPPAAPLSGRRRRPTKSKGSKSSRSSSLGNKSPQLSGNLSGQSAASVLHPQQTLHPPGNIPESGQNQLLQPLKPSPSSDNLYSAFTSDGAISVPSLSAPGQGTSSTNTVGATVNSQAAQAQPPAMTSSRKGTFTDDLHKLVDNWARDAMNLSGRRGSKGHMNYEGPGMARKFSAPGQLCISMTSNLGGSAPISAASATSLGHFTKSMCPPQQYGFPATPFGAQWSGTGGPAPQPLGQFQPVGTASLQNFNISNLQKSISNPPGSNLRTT

Hepatocyte growth factor receptor, sequence (P08581 whole entry): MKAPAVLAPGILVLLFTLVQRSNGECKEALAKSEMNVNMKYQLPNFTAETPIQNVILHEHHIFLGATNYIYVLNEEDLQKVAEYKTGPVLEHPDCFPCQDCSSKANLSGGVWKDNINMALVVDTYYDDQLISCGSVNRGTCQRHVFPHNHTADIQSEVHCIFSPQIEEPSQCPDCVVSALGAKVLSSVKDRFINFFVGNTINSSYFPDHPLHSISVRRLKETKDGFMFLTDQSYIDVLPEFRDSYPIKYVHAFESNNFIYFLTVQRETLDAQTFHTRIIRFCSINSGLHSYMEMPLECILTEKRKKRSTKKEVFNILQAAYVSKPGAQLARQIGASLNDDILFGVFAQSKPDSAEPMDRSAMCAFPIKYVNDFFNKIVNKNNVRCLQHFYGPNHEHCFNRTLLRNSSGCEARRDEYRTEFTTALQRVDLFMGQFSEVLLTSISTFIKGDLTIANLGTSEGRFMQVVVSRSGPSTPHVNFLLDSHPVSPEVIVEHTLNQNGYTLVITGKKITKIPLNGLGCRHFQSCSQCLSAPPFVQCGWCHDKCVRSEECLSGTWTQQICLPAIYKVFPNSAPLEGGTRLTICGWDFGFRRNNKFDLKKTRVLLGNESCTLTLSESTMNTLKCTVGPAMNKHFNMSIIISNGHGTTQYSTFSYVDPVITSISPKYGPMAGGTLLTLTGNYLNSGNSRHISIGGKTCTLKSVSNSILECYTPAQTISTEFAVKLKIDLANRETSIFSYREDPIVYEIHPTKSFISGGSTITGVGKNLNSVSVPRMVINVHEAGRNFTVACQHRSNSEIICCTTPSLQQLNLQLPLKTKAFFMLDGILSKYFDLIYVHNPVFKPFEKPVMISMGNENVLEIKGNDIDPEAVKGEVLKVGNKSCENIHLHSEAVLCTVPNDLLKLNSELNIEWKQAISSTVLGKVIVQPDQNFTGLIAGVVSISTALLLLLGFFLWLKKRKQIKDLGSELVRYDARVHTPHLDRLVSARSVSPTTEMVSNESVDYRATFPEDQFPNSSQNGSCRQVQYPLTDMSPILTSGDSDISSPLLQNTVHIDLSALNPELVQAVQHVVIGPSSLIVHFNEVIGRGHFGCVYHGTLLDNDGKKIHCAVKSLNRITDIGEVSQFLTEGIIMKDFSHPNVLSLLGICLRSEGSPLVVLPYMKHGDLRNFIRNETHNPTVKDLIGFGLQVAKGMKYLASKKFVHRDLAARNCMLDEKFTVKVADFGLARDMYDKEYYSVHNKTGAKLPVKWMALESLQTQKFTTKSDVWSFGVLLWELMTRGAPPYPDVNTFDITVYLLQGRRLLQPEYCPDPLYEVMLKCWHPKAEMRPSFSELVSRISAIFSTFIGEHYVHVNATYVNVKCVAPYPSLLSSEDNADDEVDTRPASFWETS

As to `Cn1cnc2c(F)c(Nc3ccc(Br)cc3Cl)c(C(=O)NOCCO)cc21` [SELUMETINIB], in assay [1], the equilibrium dissociation constant (Kd) turned out to be 0.014 µM.
In assay [2], `O=C1NC(=O)[C@@H](c2cn3c4c(cccc24)CCC3)[C@@H]1c1c[nH]c2ccccc12` [TIVANTINIB] gave an IC50 of 0.36 µM. In other words, the sub-micromolar range.
Regarding `CC(=O)Nc1cccc(-n2c(=O)n(C3CC3)c(=O)c3c(Nc4ccc(I)cc4F)n(C)c(=O)c(C)c32)c1` [TRAMETINIB], the Kd in assay [1] came to 0.003 µM. In assay [3], this compound gave an IC50 of 0.002 µM.
For `CC(C)Oc1ccc2cccc(-n3cc(NC(N)=O)c(C(N)=O)n3)c2c1`, in assay [4], the IC50 amounted to 0.03 µM.
In the case of `CNc1nc(-c2ccc3c(c2)CCN3C(=O)c2ccccc2OCc2ccc(Cl)cc2)cs1`, 0.12 µM corresponded to half-maximal inhibition in assay [5] (IC50).
